Source: patent US11542261B2, “Substituted Imidazo[1,2-a]-pyridines as IRAK 1/4 and FLT3 inhibitors” (CHILDREN'S HOSPITAL MEDICAL CENTER, priority 2016, dated 2023)

Key:
THP-1 cells [1] = assay: Synergy of I-24/1481 with venetoclax in THP-1 cells (MTS); type: cell-based; conditions: combined with an IC50 concentration of I-24/1481
Procedure: Data were analyzed by Prism v 8. […] FIG. 14C depicts the relevant heat maps; data in the upper heat map indicates the Bliss Scores, and the lower heat map indicates the individual data points for the various dose response curves. Methods: Day 0: Cell Line Plating in growth media recommended by ATCC using Tecan Fluent in 96 well plate (Eppendorf 0030730011); Day 1: Drug Addition. Venetoclax obtained from Selleckchem (S8048); Day 1→4: Incubate with Drug for 72 Hrs at 37 C, 5% CO2; Day 5: Add 20% original volume MTS (Promega G5440) and incubate for 4 Hrs; Add 25% original volume 10% SDS (Invitrogen 24730-020) to lyse cells and stop conversion of MTS to formazan. Read out is colorimetric at 490 nm using a BioTek Synergy Neo Plate Reader.

Kasumi-1 cells = assay: Synergy of I-24/1481 with venetoclax in Kasumi-1 cells (MTS); type: cell-based
THP-1 cells [2] = assay: Inhibitory activity against THP-1 cells; type: cell-based; conditions: THP-1 cells (FLT3 wild type AML); data not shown
ABL = ABL (Homo sapiens (Human), UniProt P00519); assay: KiNativ in situ kinase profiling in MV4:11 cell lysates; type: biochemical
Procedure: (§1) FIG. 18A depicts the labeling site key. FIG. 18B depicts estimated IC50 values. FIG. 18C depicts the full IC50 list for the various kinases. This is an in situ kinase profiling assay; details and methodology are available at www kinativ com. The assay was performed in lysates of MV-4-11 cells which were pretreated for 15 minutes with the inhibitor before the ATP probe was added.
(§2) The KiNativ® assay is an in situ kinase profiling assay; details and methodology are available at www kinativ com. This assay uses the form of the enzyme that is found in actual cells. The assay is run either in cell lysates or in whole cells, with the drug of interest added either to the cell lysates (i.e. cells that have been popped open) or to the outside of the cell in a whole cell assay prior to making the cell lysates. The whole cell assay is optimal because the drug must pass through the cell membrane to get to the cytoplasm where the kinase resides if the kinase is a cytosolic kinase, as is the case for IRAK, or the location of the kinase domain for the FLT3 receptor kinase domain. In the case of FIG. 18, the KiNativ assay was run on cell lysates from the MV4:11 cells. The MV4:11 cells are a FLT3-ITD positive cell line.
(§3) FLT3 is not captured by the KiNativ technology. The KiNativ assay is done in the actual cellular milieu, where the kinase domains are in their more natural states and subject to more native regulatory elements (e.g. other protein domains within the kinase itself that might not be present in the Reaction Biology assay, and which might otherwise obscure access to the active site by our ligand).

CDK7 = CDK7 (Homo sapiens (Human), UniProt P50613); assay: as above; type: biochemical
Procedure: as §1, §2, §3

GAK = GAK (Homo sapiens (Human), UniProt O14976); assay: as above; type: biochemical
Procedure: as §1, §2, §3

HGK = HGK (Homo sapiens (Human), UniProt O95819); assay: as above; type: biochemical
Procedure: as §1, §2, §3

IRAK1 = IRAK1 (Homo sapiens (Human), UniProt P51617); assay: as above; type: biochemical
Procedure: as §1, §2, §3

LYN = LYN (Homo sapiens (Human), UniProt P07948); assay: as above; type: biochemical
Procedure: as §1, §2, §3

MINK = MINK (Homo sapiens (Human), UniProt Q8N4C8); assay: as above; type: biochemical
Procedure: as §1, §2, §3

PCTAIRE1 = PCTAIRE1 (Homo sapiens (Human), UniProt Q00536); assay: as above; type: biochemical
Procedure: as §1, §2, §3

PCTAIRE2 = PCTAIRE2 (Homo sapiens (Human), UniProt Q00537); assay: as above; type: biochemical
Procedure: as §1, §2, §3

PCTAIRE3 = PCTAIRE3 (Homo sapiens (Human), UniProt Q07002); assay: as above; type: biochemical
Procedure: as §1, §2, §3

TNIK = TNIK (Homo sapiens (Human), UniProt Q9UKE5); assay: as above; type: biochemical
Procedure: as §1, §2, §3

FLT3 phosphorylation = assay: Immunoblot of phosphorylated FLT3 in MV4;11 cells; type: cell-based, human; conditions: 50 nM, 24 hours
IRAK4 phosphorylation = assay: Immunoblot of phosphorylated IRAK4 in MDSL cells; type: cell-based, human; conditions: 24 hours
MDSL cells = assay: MDSL cell growth, Cell-titer glow, 72 hours; type: cell-based, human
Procedure: In a 96-well culture plate (Corning Inc. Costar), 25000 cells were plated in 200 μL media per well. In triplicate, 2 μL of the indicated inhibitor (100× in DMSO) was added to each well and cells treated with 2 μL DMSO alone was used as the control. Treated cells were incubated at 37° C. for 72 hours. In a white 96-well assay plate (Corning Inc. Costar), 100 μL of the treated cells were transferred and brought to room temperature. An equal volume of CellTiter-Glo Reagent at room temperature was added to the cells and the plate was rocked for 2 minutes, followed by 10 minutes of rest. Analysis was performed using GloMax 96 microplate Luminometer (Promega) with GloMax Software.
FIG. 10—Methods: (FIG. 10A) Colony formation of MDSL cells was determined in methylcellulose supplemented with 1 μM or 10 μM of the indicated compounds. Colony formation was determined after 10 days.

SMILES | shift of venetoclax IC50 (THP-1 cells [1]) | IC50 (Kasumi-1 cells; Homo sapiens, denominator of the dose ratio, read-out: concentration giving the IC50 response when administered alone) | fold shift of Venetoclax IC50 (Kasumi-1 cells; combined with a minimally active concentration of I-24/1481) | fold shift of Venetoclax IC50 (MLL-AF9 FLT3-ITD cells; combined with 0.2 nM 1481) | IC50 (MLL-AF9 FLT3-ITD cells; read-out: IC50 alone, single agent) | concentration without any inhibitory activity (THP-1 cells [2]) | IC50 (ABL) | IC50 (CDK7) | IC50 (GAK) | IC50 (HGK) | IC50 (IRAK1) | IC50 (LYN) | IC50 (MINK) | IC50 (PCTAIRE1) | IC50 (PCTAIRE2) | IC50 (PCTAIRE3) | IC50 (TNIK) | FLT3 phosphorylation (FLT3 phosphorylation) | IRAK4 phosphorylation (IRAK4 phosphorylation) | MDSL growth (MDSL cells)
CC1(C)CCC(CN2CCN(c3ccc(C(=O)NS(=O)(=O)c4ccc(NCC5CCOCC5)c([N+](=O)[O-])c4)c(Oc4cnc5[nH]ccc5c4)c3)CC2)=C(c2ccc(Cl)cc2)C1 [Venetoclax, venetoclax] | 15,000 times | 3600 nM | ~15 fold | 50 fold | 3160 nM | – | – | – | – | – | – | – | – | – | – | – | – | – | – | –
COc1cc2ncc(-c3cccc(NC4CCNC4)n3)n2cc1-c1cnn(C)c1 (centres unmarked) [Compound I-24, 6-(7-methoxy-6-(1-methyl-1H-pyrazol-4-yl)imidazo[1,2-a]pyridin-3-yl)-N-(pyrrolidin-3-yl)pyridin-2-amine] | – | – | – | – | – | > 10 µM | < 250 nM | < 250 nM | < 250 nM | < 250 nM | < 250 nM | < 250 nM | < 250 nM | < 250 nM | < 250 nM | < 250 nM | < 250 nM | inhibited FLT3 phosphorylation comparably to AC220 | effectively inhibited pIRAK4 | increased ability to inhibit MDSL growth compared to IRAK-Inh
